Target: T1, KCNQ 2/3 channels (HEK293 cells stably expressing human KCNQ2 and KCNQ3 subunits) (Homo sapiens, UniProt O43525+O43526)
T1 construct: expressed in transfected cells; host or cells: HEK293
Experiment: KCNQ2/3 channel activation, thallium flux FLIPR assay with BTC-AM dye
Format: cell-based
Conditions: for Emax: HEK293, maximum response relative to the response produced by 10 μM retigabine (set at 100%), read-out: Max. %; for EC50: HEK293 cells expressing human KCNQ2 and KCNQ3, thallium flux, FLIPR
Description: The following example describes the assay that can be used to identify compounds that activate KCNQ 2/3 channels.
HEK293 cells stably expressing human KCNQ2 and KCNQ3 subunits were seeded in 96-well, black-walled, clear-bottomed, poly-D-lysine coated plates (BD Biosciences, Bedford, Mass.) at a density of 1×10^5 cells per well 24 hours before the assay. On the assay day, BTC-AM dye (Invitrogen, Carlsbad, Calif.) was loaded into the cells by replacing the cell culture medium with 55 μL/well of 3 μg/mL dye in DPBS. Dye loading was allowed to proceed for 2 hours at room temperature and then cells were washed twice with 50 μL/well of assay buffer (in mM: 10 HEPES pH 7.3, 5 glucose, 140 Na-gluconate, 2.5 K-gluconate, 3.6 Ca-gluconate, 2 MgSO4, 0.1 Ouabain) to remove unloaded dye. Cells were incubated in 50 μL of assay buffer before loading onto a FLIPR system (Molecular Devices, Sunnyvale, Calif.). Various concentrations of compounds to be assayed were added to the cells in 50 μL of assay buffer and incubated for 4 minutes. The fluorescence signal was initiated by adding 100 μL of assay buffer containing 6 mM TlNO3 and 10 mM K2SO4. Fluors were excited using the 488-nm line of an argon laser and emission was filtered using a 540±30 nm bandpass filter. Fluorescent signals were recorded for 3 minutes. Sums of the responses over basal responses were plotted versus concentrations of test compounds to obtain an EC50 value. The maximum response for each test compound was determined relative to the response produced by 10 μM retigabine. The maximum response of retigabine at 10 μM was set at 100%.

Row | Emax [%] | EC50 [nM] | SMILES
1 | 51 | 1000 to 10000 | Cc1ccc(CC(=O)Nn2nc(C(F)(F)F)c3ccccc3c2=O)s1 [Example 56, 2-(5-methyl-2-thienyl)-N-[1-oxo-4-(trifluoromethyl)phthalazin-2(1H)-yl]acetamide]
2 | 57 | 1000 to 10000 | CN(C)c1ccc(CC(=O)Nn2nc(-c3ccc(Cl)cc3)c3ccccc3c2=O)cc1 [Example 101, N-[4-(4-chlorophenyl)-1-oxophthalazin-2(1H)-yl]-2-[4-(dimethylamino)phenyl]acetamide]
3 | 13 | > 10000 | O=C(Cc1ccc(Cl)cc1Cl)Nn1nc(-c2ccccc2)c2ccccc2c1=O [Example 83, 2-(2,4-dichlorophenyl)-N-(1-oxo-4-phenylphthalazin-2(1H)-yl)acetamide]
4 | 130 | < 100 | Cc1ccc(-c2nn(NC(=O)Cc3cc(F)cc(F)c3)c(=O)c3ccccc23)cc1 [Example 136, 2-(3,5-difluorophenyl)-N-[4-(4-methylphenyl)-1-oxophthalazin-2(1H)-yl]acetamide]
5 | 97 | 1000 to 10000 | COc1ccc(CC(=O)Nn2nc(-c3ccc(Cl)cc3)c3ccccc3c2=O)cc1 [Example 104, N-[4-(4-chlorophenyl)-1-oxophthalazin-2(1H)-yl]-2-(4-methoxyphenyl)acetamide]
6 | 92 | 100 to 500 | O=C(Cc1ccc(Cl)s1)Nn1nc(-c2ccc(Cl)cc2)c2ccccc2c1=O [Example 112, N-[4-(4-chlorophenyl)-1-oxophthalazin-2(1H)-yl]-2-(5-chloro-2-thienyl)acetamide]
7 | 83 | 100 to 500 | O=C(Cc1cc(F)cc(F)c1)Nn1nc(Cc2ccc(Cl)cc2)c2ccccc2c1=O [Example 146, N-[4-(4-chlorobenzyl)-1-oxophthalazin-2(1H)-yl]-2-(3,5-difluorophenyl)acetamide]
8 | 155 | 100 to 500 | O=C(Cc1ccc(Cl)cc1)Nn1nc(-c2ccccc2)c2cc(F)ccc2c1=O [Example 36, 2-(4-chlorophenyl)-N-(6-fluoro-1-oxo-4-phenylphthalazin-2(1H)-yl)acetamide]
9 | 144 | < 100 | COC(=O)c1ccc(-c2nn(NC(=O)C[C@H]3C[C@@H]4CC[C@H]3C4)c(=O)c3ccccc23)cc1 (racemic) [Example 79, (±)-methyl 4-(3-{[exo-bicyclo[2.2.1]hept-2-ylacetyl]amino}-4-oxo-3,4-dihydrophthalazin-1-yl)benzoate]
10 | 124 | 1000 to 10000 | O=C(Cc1ccc(Cl)cc1)Nn1nc(-c2ccccc2)c2c(c1=O)CCC2 [Example 190, 2-(4-chlorophenyl)-N-(1-oxo-4-phenyl-1,5,6,7-tetrahydro-2H-cyclopenta[d]pyridazin-2-yl)acetamide]
11 | 149 | 1000 to 10000 | O=C(Cc1cccnc1)Nn1nc(-c2ccc(Cl)cc2)c2ccccc2c1=O [Example 93, N-[4-(4-chlorophenyl)-1-oxophthalazin-2(1H)-yl]-2-(pyridin-3-yl)acetamide]
12 | 156 | 100 to 500 | CC(C)(CC(=O)Nn1nc(-c2ccccc2)c2ccccc2c1=O)c1ccccc1 [Example 82, 3-methyl-N-(1-oxo-4-phenylphthalazin-2(1H)-yl)-3-phenylbutanamide]
13 | 104 | 500 to 1000 | CC(C)c1ccc(-c2nn(NC(=O)Cc3ccc(Cl)cc3)c(=O)c3ccccc23)cc1 [Example 170, 2-(4-chlorophenyl)-N-[4-(4-isopropylphenyl)-1-oxophthalazin-2(1H)-yl]acetamide]
14 | 84 | 1000 to 10000 | O=C(CC1CCC1)Nn1nc(C(F)(F)F)c2ccccc2c1=O [Example 45, 2-cyclobutyl-N-[1-oxo-4-(trifluoromethyl)phthalazin-2(1H)-yl]acetamide]
15 | -2 | > 10000 | O=C(CC1(c2ccccc2)CC1)Nn1nc(C(F)(F)F)c2ccccc2c1=O [Example 51, N-[1-oxo-4-(trifluoromethyl)phthalazin-2(1H)-yl]-2-(1-phenylcyclopropyl)acetamide]
